IC50, Activity and MIC data for one compound are collected here from ChEMBL document CHEMBL1212941, “Eucapsitrione, an anti-Mycobacterium tuberculosis anthraquinone derivative from the cultured freshwater cyanobacterium Eucapsis sp” (J Nat Prod, 2010).

For test [1], the system named is Vero. The experiment in a line: Cytotoxicity against african green monkey Vero cells. In kind it is cell-based. The settings on record: Chlorocebus sabaeus.
Test [2] relates to Candida albicans. The experiment in a line: Antifungal activity against Candida albicans at 55 uM by broth microdilution method. In kind it is functional, organism-based.
Test [3] has as its system Mycolicibacterium smegmatis. The experiment in a line: Antimycobacterial activity against Mycobacterium smegmatis at 55 uM by broth microdilution method. In kind it is functional, organism-based.
For test [4], the system named is Mycobacterium tuberculosis. The experiment in a line: Antimycobacterial activity against Mycobacterium tuberculosis H37Rv by low oxygen recovery assay. Format: functional.
Test [5] deals with Mycobacterium tuberculosis. The experiment in a line: Antimycobacterial activity against Mycobacterium tuberculosis H37Rv by microplate alamar blue assay. In kind it is functional.
Test [6] deals with Staphylococcus aureus. The experiment in a line: Antibacterial activity against Staphylococcus aureus at 55 uM by broth microdilution method. Format: functional, organism-based.
In test [7] the test system is Escherichia coli. The experiment in a line: Antibacterial activity against Escherichia coli at 55 uM by broth microdilution method. Format: functional, organism-based.

Converted amounts (≈) assume the structure as drawn. The source made the active and inactive calls. No cut-off for these calls is given here.

Consider `O=c1c2cccc(O)c2c(=O)c2c(O)c3c(cc12)c(=O)c1c(O)cccc13` [EUCAPSITRIONE], for which the IC50 in test [1] was more than 28 µM. Besides, the outcome in test [2], in test [3], in test [6] and in test [7] was inactive. Moreover, the MIC in test [4] worked out at 6.4 µM (≈ 2.29 µg/mL); in test [5] it was 3.1 µM (≈ 1.11 µg/mL).
